Laboratory results as given in PubChem BioAssay AID1259407 (Chemical Carcinogenesis Research Information System (CCRIS), 2018).
Calls of active or inactive are those of the source. The rule behind the calls is not given here.

Test system: CCRIS mutagenicity, Ames/micronucleus/aberration tests
Assay: CCRIS mutagenicity studies
[1] = Test System: AMES SALMONELLA TYPHIMURIUM, Strain/Indicator: TA98, Metabolic Activation: NONE, Method: STANDARD PLATE
[2] = Test System: AMES SALMONELLA TYPHIMURIUM, Strain/Indicator: TA98, Metabolic Activation: RAT, LIVER, S-9, AROCLOR 1254, Method: STANDARD PLATE
[3] = Test System: AMES SALMONELLA TYPHIMURIUM, Strain/Indicator: TA100, Metabolic Activation: NONE, Method: STANDARD PLATE
[4] = Test System: AMES SALMONELLA TYPHIMURIUM, Strain/Indicator: TA98, Metabolic Activation: NONE, Method: PREINCUBATION

Measured: mutagenic call

CC(C)(Oc1ccc(C2CC2(Cl)Cl)cc1)C(=O)O (stereo not given)
inactive: Test System: AMES SALMONELLA TYPHIMURIUM, Strain/Indicator: TA98, Metabolic Activation: NONE inactive; negative | Test System: AMES SALMONELLA TYPHIMURIUM, Strain/Indicator: TA98, Metabolic Activation: RAT, LIVER, S-9, AROCLOR 1254 inactive; negative | Test System: AMES SALMONELLA TYPHIMURIUM, Strain/Indicator: TA102, Metabolic Activation: NONE inactive; negative | Test System: AMES SALMONELLA TYPHIMURIUM, Strain/Indicator: TA102, Metabolic Activation: RAT, LIVER, S-9, AROCLOR 1254 inactive; negative | Test System: AMES SALMONELLA TYPHIMURIUM, Strain/Indicator: TA104, Metabolic Activation: NONE inactive; negative | Test System: AMES SALMONELLA TYPHIMURIUM, Strain/Indicator: TA104, Metabolic Activation: RAT, LIVER, S-9, AROCLOR 1254 inactive; negative | Test System: UDS RAT HEPATOCYTES, Strain/Indicator: BROMODEOXYURIDINE INCORP, Metabolic Activation: NONE, Method: FLOW CYTOMETRIC ANALYSIS inactive; negative | Test System: UDS RAT HEPATOCYTES, Strain/Indicator: THY INCORP, Metabolic Activation: NONE, Method: AUTORADIOGRAPHY inactive; negative | Test System: UDS RAT HEPATOCYTES, Strain/Indicator: THY INCORP, Metabolic Activation: NONE, Method: LIQUID SCINTILLATION COUNTING inactive; negative

CC(=O)Nc1cc(O)c2ccc3cccc4ccc1c2c34
active: Test System: AMES SALMONELLA TYPHIMURIUM, Strain/Indicator: TA98(1,8-DNP6), Metabolic Activation: NONE, Method: STANDARD PLATE active; positive | Test System: AMES SALMONELLA TYPHIMURIUM, Strain/Indicator: TA98(1,8-DNP6), Metabolic Activation: RAT, LIVER, S-9, AROCLOR 1254, Method: STANDARD PLATE active; positive | [1] active; positive | [2] active; positive | Test System: AMES SALMONELLA TYPHIMURIUM, Strain/Indicator: YG1024, Metabolic Activation: NONE, Method: STANDARD PLATE active; positive | Test System: AMES SALMONELLA TYPHIMURIUM, Strain/Indicator: YG1024, Metabolic Activation: RAT, LIVER, S-9, AROCLOR 1254, Method: STANDARD PLATE active; positive

NCCNc1cccc2ccccc12
inactive: Test System: CHINESE HAMSTER OVARY, Strain/Indicator: CHO-K1-BH4 (HGPRT)/6-THIOGUANINE, Metabolic Activation: NONE inactive; negative | Test System: CHINESE HAMSTER OVARY, Strain/Indicator: CHO-K1-BH4 (HGPRT)/6-THIOGUANINE, Metabolic Activation: S-9 inactive; negative

[N-]=[N+]=Nc1nc2ccccc2[nH]1
active: [1] active; positive

C[Si]1(C)O[Si](C)(C)O[Si](C)(C)O[Si](C)(C)O[Si](C)(C)O1
inactive: [1] inactive; negative | Test System: AMES SALMONELLA TYPHIMURIUM, Strain/Indicator: TA98, Metabolic Activation: RAT LIVER S-9, AROCLOR 1254, Method: STANDARD PLATE inactive; negative | [3] inactive; negative | Test System: AMES SALMONELLA TYPHIMURIUM, Strain/Indicator: TA100, Metabolic Activation: RAT LIVER S-9, AROCLOR 1254, Method: STANDARD PLATE inactive; negative | Test System: AMES SALMONELLA TYPHIMURIUM, Strain/Indicator: TA1535, Metabolic Activation: NONE, Method: STANDARD PLATE inactive; negative | Test System: AMES SALMONELLA TYPHIMURIUM, Strain/Indicator: TA1535, Metabolic Activation: RAT LIVER S-9, AROCLOR 1254, Method: STANDARD PLATE inactive; negative | Test System: AMES SALMONELLA TYPHIMURIUM, Strain/Indicator: TA1537, Metabolic Activation: NONE, Method: STANDARD PLATE inactive; negative | Test System: AMES SALMONELLA TYPHIMURIUM, Strain/Indicator: TA1537, Metabolic Activation: RAT LIVER S-9, AROCLOR 1254, Method: STANDARD PLATE inactive; negative | Test System: AMES SALMONELLA TYPHIMURIUM, Strain/Indicator: TA1538, Metabolic Activation: NONE, Method: STANDARD PLATE inactive; negative | Test System: AMES SALMONELLA TYPHIMURIUM, Strain/Indicator: TA1538, Metabolic Activation: RAT LIVER S-9, AROCLOR 1254, Method: STANDARD PLATE inactive; negative | Test System: E. COLI, Strain/Indicator: P3078 POLA, Metabolic Activation: NONE, Method: SPOT TEST inactive; negative | Test System: E. COLI, Strain/Indicator: P3078 POLA, Metabolic Activation: RAT LIVER S-9, AROCLOR 1254, Method: SPOT TEST inactive; negative | Test System: E. COLI, Strain/Indicator: W3110, Metabolic Activation: NONE, Method: SPOT TEST inactive; negative | Test System: E. COLI, Strain/Indicator: W3110, Metabolic Activation: RAT LIVER S-9, AROCLOR 1254, Method: SPOT TEST inactive; negative | Test System: MOUSE LYMPHOMA, Strain/Indicator: L5178Y (TK+/TK-), Metabolic Activation: NONE, Method: SUSPENSION/PLATE inactive; negative | Test System: MOUSE LYMPHOMA, Strain/Indicator: L5178Y (TK+/TK-), Metabolic Activation: RAT, LIVER, S-9, Method: SUSPENSION/PLATE inactive; negative

CCCCOCC=O
active: Test System: CHINESE HAMSTER V-79, Strain/Indicator: V-79 (HPRT)/6-THIOGUANINE, Metabolic Activation: NONE active; positive
inactive: Test System: AMES SALMONELLA TYPHIMURIUM, Strain/Indicator: TA97A, Metabolic Activation: NONE, Method: STANDARD PLATE inactive; negative | Test System: AMES SALMONELLA TYPHIMURIUM, Strain/Indicator: TA97A, Metabolic Activation: RAT, LIVER, S-9, AROCLOR 1254, Method: STANDARD PLATE inactive; negative | [1] inactive; negative | [2] inactive; negative | [3] inactive; negative | Test System: AMES SALMONELLA TYPHIMURIUM, Strain/Indicator: TA100, Metabolic Activation: RAT, LIVER, S-9, AROCLOR 1254, Method: STANDARD PLATE inactive; negative | Test System: AMES SALMONELLA TYPHIMURIUM, Strain/Indicator: TA102, Metabolic Activation: NONE, Method: STANDARD PLATE inactive; negative | Test System: AMES SALMONELLA TYPHIMURIUM, Strain/Indicator: TA102, Metabolic Activation: RAT, LIVER, S-9, AROCLOR 1254, Method: STANDARD PLATE inactive; negative | Test System: CHINESE HAMSTER OVARY, Strain/Indicator: CHO-AS52/6-THIOGUANINE, Metabolic Activation: NONE inactive; negative

Cc1ccc(S(=O)(=O)OC[C@H]2CO2)cc1
active: Test System: AMES SALMONELLA TYPHIMURIUM, Strain/Indicator: TA100, Metabolic Activation: NONE, Method: PREINCUBATION active; positive | [3] active; positive | Test System: AMES SALMONELLA TYPHIMURIUM, Strain/Indicator: TA100, Metabolic Activation: RAT, LIVER, S-9, PCB, Method: PREINCUBATION active; positive

Cc1ccc2ccc([N+](=O)[O-])cc2c1
active: [4] active; positive

O=[N+]([O-])c1ccc2c(c1)Oc1cc(Cl)c(Cl)cc1O2
active: [1] active; positive | Test System: AMES SALMONELLA TYPHIMURIUM, Strain/Indicator: TA98, Metabolic Activation: RAT, LIVER, S-9, AROCLOR, Method: STANDARD PLATE active; positive | [3] active; positive | Test System: AMES SALMONELLA TYPHIMURIUM, Strain/Indicator: TA100, Metabolic Activation: RAT, LIVER, S-9, AROCLOR, Method: STANDARD PLATE active; positive

CCc1c2ccccc2cc2c1c1c(c3ccccc32)O1
active: [4] active; positive

[Br][Pb][Br]
inactive: Test System: AMES SALMONELLA TYPHIMURIUM, Strain/Indicator: TA1537, Metabolic Activation: NONE inactive; negative
active: Test System: AMES SALMONELLA TYPHIMURIUM, Strain/Indicator: TA1535, Metabolic Activation: NONE active; positive
